Source: patent US11851391B2, “Antifungal compounds and methods of forming the same” (University of Kentucky Research Foundation, priority 2018, dated 2023)
Entries after “also recorded” stand apart in the source; their conditions may differ.

What was measured:
[1] = test system: various yeast strains and filamentous fungi (strains A-M); assay: Antifungal activity over the whole panel (summary of MIC data); format: cell-based, Candida and Aspergillus strains; details: over the fungal strains tested, based on MIC data of Table 1
Procedure, shortened: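 Yeasts (A–J) followed CLSI M27-A3 broth microdilution at 2–4×10^3 CFU/mL in RPMI 1640 with DMSO <1.25%. Aspergillus (K–M) followed CLSI M38-A2 with spores at 5×10^5 CFU/mL, 48 h at 35 °C. MIC is the lowest concentration giving complete growth inhibition (MIC-0), tested in triplicate.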

hERG channel = hERG channel (Homo sapiens, UniProt Q12809); assay: in vitro; details: for IC50 at 60 min: human
Sequence of hERG channel (Q12809 whole entry): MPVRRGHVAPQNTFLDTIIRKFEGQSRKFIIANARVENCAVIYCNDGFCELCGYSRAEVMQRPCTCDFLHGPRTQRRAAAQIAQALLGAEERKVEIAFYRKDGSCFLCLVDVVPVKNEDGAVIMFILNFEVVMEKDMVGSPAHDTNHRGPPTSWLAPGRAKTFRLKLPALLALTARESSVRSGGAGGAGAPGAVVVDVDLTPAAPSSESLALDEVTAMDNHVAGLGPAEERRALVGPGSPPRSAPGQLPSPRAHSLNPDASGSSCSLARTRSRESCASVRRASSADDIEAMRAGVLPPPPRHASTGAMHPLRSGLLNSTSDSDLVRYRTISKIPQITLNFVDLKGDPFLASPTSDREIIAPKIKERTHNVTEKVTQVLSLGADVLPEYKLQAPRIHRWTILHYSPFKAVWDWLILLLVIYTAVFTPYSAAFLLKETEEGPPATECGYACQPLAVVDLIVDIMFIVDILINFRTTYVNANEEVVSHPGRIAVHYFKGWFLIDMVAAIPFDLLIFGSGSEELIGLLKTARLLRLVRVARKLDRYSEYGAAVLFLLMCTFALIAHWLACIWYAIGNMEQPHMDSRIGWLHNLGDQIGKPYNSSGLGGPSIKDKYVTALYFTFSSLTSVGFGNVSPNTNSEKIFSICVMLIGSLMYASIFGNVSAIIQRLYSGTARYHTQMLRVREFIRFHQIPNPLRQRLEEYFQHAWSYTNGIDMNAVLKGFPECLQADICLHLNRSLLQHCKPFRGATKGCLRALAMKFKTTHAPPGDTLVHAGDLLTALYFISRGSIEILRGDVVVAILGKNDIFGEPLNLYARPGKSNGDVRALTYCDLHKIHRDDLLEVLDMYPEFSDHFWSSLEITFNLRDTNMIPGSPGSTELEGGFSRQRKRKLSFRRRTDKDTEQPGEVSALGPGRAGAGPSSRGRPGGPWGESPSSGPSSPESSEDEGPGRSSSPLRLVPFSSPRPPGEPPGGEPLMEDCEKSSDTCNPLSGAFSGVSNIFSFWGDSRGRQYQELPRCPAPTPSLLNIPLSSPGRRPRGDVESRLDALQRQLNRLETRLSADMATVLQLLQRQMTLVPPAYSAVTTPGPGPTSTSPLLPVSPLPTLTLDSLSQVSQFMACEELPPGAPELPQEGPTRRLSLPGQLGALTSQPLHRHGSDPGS
Excerpt: The HEK-293 cell line stably expressing the hERG potassium channel (accession number U04270) referred to as hERG-HEK cells were received at passage 11 from Millipore (CYL3006, lot 2, Billerica, MA). [^3H]-Dofetilide (specific activity of 80 Ci/mmol; labeled on the N-methyl group) was obtained from American Radiolabeled Chemicals, St. Louis, MO Other chemicals and solvents were obtained from Sigma-Aldrich (Milwaukee, WI) with exceptions of polyethylenimine (PEI), which was obtained from Fluka/Sigma-Aldrich (St. Louis, MO), and Minimium Essential Medium (MEM) with GlutaMAX™ and phenol red, MEM non-essential amino acids solution (NEAA, 100×), G418 disulfate salt solution, fetal bovine serum (FBS), 0.05% Trypsin-EDTA 1× with phenol red, and Hank's balanced salt solution (HBSS), which were obtained from Life Technologies (Carlsbad, CA).
The hERG-HEK cells were cultured according to the protocol provided by Millipore. Cells were maintained in MEM (with GlutaMAX™ and phenol red) supplemented with 10% FBS, 1% NEAA and 400 μg/mL G418 disulfate salt, and incubated at 37° C. in a humidified atmosphere with 5% CO2. Frozen aliquots of cells were transferred into T-75 cm^2 flasks and allowed to adhere for 4-8 h. The medium was replaced every 2 days. Passages were carried out at least 3 times after thawing at 6-day intervals. Cells were dissociated with trypsin/EDTA and seeded into new 150×25 mm dishes at 2-3×10^6 cells per dish and placed at 30° C., 5% CO2, for 40-48 h prior to membrane preparation. Membrane preparation occurred 6 days after the last passage (passage 20).
Cell membrane preparation was based on previous methods. Cells were rinsed twice with HBSS at 37° C. and collected by scraping the dishes in ˜20 mL of ice-cold 0.32 M sucrose and homogenized on ice with a Teflon pestle using a Maximal Digital homogenizer (Fisher Scientific, Pittsburgh, PA) at ˜280 rpm for 30 sec. Homogenates were centrifuged at 300 g and 800 g for 4 min each at 4° C. Pellets were resuspended in 9 mL of ice-cold Milli-Q H2O and osmolarity restored by addition of 1 mL of 500 mM Tris buffer (pH 7.4) followed by suspension and centrifugation at 20,000 g for 30 min at 4° C. Pellets were homogenized in 2 mL assay buffer (50 mM Tris, 10 mM KCl, and 1 mM MgCl2, 4° C.) and aliquots of cell membrane suspensions were stored at −80° C. and thawed the day of the [^3H]-dofetilide binding assay. Protein content was determined prior to the assay using a Bradford protein assay with bovine albumin as the standard.
[^3H]-Dofetilide binding assays using hERG-HEK293 cell membranes were based on previous methods. Assays determining concentration-response were conducted in duplicate, and three independent assays were performed for each analogue evaluated. Cell membrane suspension (5 μg) was added to duplicate tubes containing assay buffer, 25 μL of a single concentration of N,N-dialkylaminostilbene agent (FIDAS agent) (concentration range of 10 nM-100 μM for each experiment), and 25 μL of [^3H]-dofetilide (5 nM, final concentration) for an assay volume of 250 μL. Binding occurred for 60 min at 25° C. and was terminated by rapid filtration through Whatman GF/B filters, which were pre-soaked in 0.25% PEI overnight, using a Brandel cell/membrane harvester (M-48; Brandel Inc., Gaithersburg, MD). […] Radioactivity was determined by liquid scintillation spectrometry using the Tri-Carb 2100-TR Liquid Scintillation Analyzer (Perkin-Elmer Life and Analytical Sciences).

Structure (SMILES)	antifungal activity (in words) [1]	IC50 at 60 min (hERG channel) [µM]	hERG inhibition (in words) (hERG channel)
Fc1cccc(N/N=C/c2ccc(-c3cccc(/C=N/Nc4cccc(F)c4)c3)cc2)c1 [Compound 12a]	good activity		
COc1ccc(N/N=C/c2ccc(-c3cccc(/C=N/Nc4ccc(OC)cc4)c3)cc2)cc1 [Compound 15a]		> 30	
COc1ccc(N/N=C/c2ccc(-c3ccc(/C=N/Nc4ccc(OC)cc4)cc3)cc2)cc1 [Compound 15b]	good activity against the majority of the fungal strains tested	> 30	
Fc1ccc(N/N=C/c2ccc(-c3cccc(/C=N/Nc4ccc(F)cc4)c3)cc2)cc1 [Compound 17a]	good activity against the majority of the fungal strains tested	> 30	
C/C(=N\Nc1ccc(F)cc1)c1ccc(-c2ccc(/C(C)=N/Nc3ccc(F)cc3)cc2)cc1 [Compound 17c, 4,4′-bis((E)-1-(2-(4-fluorophenyl)hydrazono)ethyl)-1,1′-biphenyl]		> 30	no hERG inhibition
Fc1ccc(N/N=C/c2ccc(-c3cccc(/C=N/Nc4ccc(F)cc4F)c3)cc2)c(F)c1 [Compound 20a]	overall antifungal activity against all the strains tested; also recorded: good activity against the majority of the fungal strains tested		
